The target of one test is CDK4/Cyclin D1 (Homo sapiens, UniProt P11802). Kind of test: CDK4/cyclin D1 kinase assay (GST-Rb phosphorylation). Format: biochemical.
In a further test the target is CDK2/cyclin A (Homo sapiens, UniProt P24941). Nature of the test: CDK2/cyclin A kinase assay.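 Note: Read-out is incorporated radioactivity retained on P81 filter plates and quantified by scintillation counting.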 It is filed as biochemical.
The next test has as its target CDK1/Cyclin B (Homo sapiens, UniProt P06493). Nature of the test: CDK1/cyclin B kinase assay (GST-Rb phosphorylation).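 Note: Enzyme: His-tagged CDK1/Cyclin B co-expressed in baculovirus-infected Sf9 insect cells, purified via metal-chelate chromatography.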
For a further test, the target named is CDK7/cyclin H (Homo sapiens, UniProt P50613). Nature of the test: CDK7 assay (CTD peptide substrate). It is filed as biochemical. The method, then:
(§1) CTD peptide substrate (biotinyl-Ahx-(Tyr-Ser-Pro-Thr-Ser-Pro-Ser)4-NH2; 1-2 mg/mL) and recombinant human CDK7/cyclin H, CDK9/cyclin T1, or CDK9/cyclin K (0.5-2 μg) were incubated for 45 min at 30° C. in the presence of varying amounts of test compound in 20 mM MOPS pH 7.2, 25 mM β-glycerophosphate, 5 mM EGTA, 1 mM DTT, 1 mM sodium vanadate, 15 mM MgCl2, and 100 μM ATP (containing a trace amount of ^32PγATP) in a total volume of 25 μL in a 96-well microtiter plate. The reaction was stopped by placing the plate on ice for 2 min. Avidin (50 μg) was added to each well, and the plate was incubated at room temp for 30 min. The samples were transferred to a 96-well P81 filter plate, and washed (4×200 μL per well) with 75 mM phosphoric acid. Microscint 40 scintillation liquid (50 μL) was added to each well, and the amount of ^32P incorporation for each sample was measured using a Packard Topcount microplate scintillation counter.

A further test concerns the target T1, CDK2/Cyclin E (Homo sapiens, UniProt P24941).
T1 construct: His; made in house; host or cells: Sf9 insect cells (baculovirus)
Kind of test: CDK2/cyclin E kinase assay (GST-Rb phosphorylation).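 Note: enzyme source: His-tagged CDK2/cyclin E complex co-expressed recombinantly in Sf9 insect cells using baculovirus constructs.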 Format: biochemical.

The next test has as its target CDK9/cyclin T1 (Homo sapiens, UniProt P50750). Nature of the test: CDK9 assay (CTD peptide substrate). It is filed as biochemical. The procedure:
as §1

Setting [1] is: Table 3, read-out: Average IC50 CDK4 cyclin D1.
The mark [2] stands for this setting: Table 3, read-out: Average IC50 CDK2 cyclin A2.
The mark [3] stands for this setting: Table 3, read-out: Average IC50 CDK7 cyclin H.
The mark [4] stands for this setting: Table 3, read-out: Average IC50 CDK2 cyclin E1.
The mark [5] stands for this setting: Table 3, read-out: Average IC50 CDK9 cyclin T1.
Setting [6] is: Table 4, read-out: Kinase Inhibition IC50 CDK2-cyclin A.
Where [7] appears, read: Table 4, read-out: Kinase Inhibition IC50 CDK7-cyclin H.
Where [8] appears, read: Table 4, read-out: Kinase Inhibition IC50 CDK4-cyclin D1.
Setting [9] is: Table 4, read-out: Kinase Inhibition IC50 CDK2-cyclin E.
Where [10] appears, read: Table 4, read-out: Kinase Inhibition IC50 CDK9-cyclin T1.

Read-outs that look alike come from different tables or passages of the source.

Chain of CDK9/cyclin T1 (P50750 whole entry): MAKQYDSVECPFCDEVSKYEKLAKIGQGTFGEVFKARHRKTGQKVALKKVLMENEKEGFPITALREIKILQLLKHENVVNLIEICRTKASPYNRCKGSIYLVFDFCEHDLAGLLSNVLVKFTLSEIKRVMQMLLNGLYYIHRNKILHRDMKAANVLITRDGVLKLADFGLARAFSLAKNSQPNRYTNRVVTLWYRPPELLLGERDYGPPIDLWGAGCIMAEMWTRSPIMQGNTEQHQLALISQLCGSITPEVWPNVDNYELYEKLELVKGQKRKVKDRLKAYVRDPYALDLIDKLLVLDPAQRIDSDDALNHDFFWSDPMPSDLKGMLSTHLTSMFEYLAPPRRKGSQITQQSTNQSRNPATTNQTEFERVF
Chain of CDK9/cyclin T1 (O60563 whole entry partner): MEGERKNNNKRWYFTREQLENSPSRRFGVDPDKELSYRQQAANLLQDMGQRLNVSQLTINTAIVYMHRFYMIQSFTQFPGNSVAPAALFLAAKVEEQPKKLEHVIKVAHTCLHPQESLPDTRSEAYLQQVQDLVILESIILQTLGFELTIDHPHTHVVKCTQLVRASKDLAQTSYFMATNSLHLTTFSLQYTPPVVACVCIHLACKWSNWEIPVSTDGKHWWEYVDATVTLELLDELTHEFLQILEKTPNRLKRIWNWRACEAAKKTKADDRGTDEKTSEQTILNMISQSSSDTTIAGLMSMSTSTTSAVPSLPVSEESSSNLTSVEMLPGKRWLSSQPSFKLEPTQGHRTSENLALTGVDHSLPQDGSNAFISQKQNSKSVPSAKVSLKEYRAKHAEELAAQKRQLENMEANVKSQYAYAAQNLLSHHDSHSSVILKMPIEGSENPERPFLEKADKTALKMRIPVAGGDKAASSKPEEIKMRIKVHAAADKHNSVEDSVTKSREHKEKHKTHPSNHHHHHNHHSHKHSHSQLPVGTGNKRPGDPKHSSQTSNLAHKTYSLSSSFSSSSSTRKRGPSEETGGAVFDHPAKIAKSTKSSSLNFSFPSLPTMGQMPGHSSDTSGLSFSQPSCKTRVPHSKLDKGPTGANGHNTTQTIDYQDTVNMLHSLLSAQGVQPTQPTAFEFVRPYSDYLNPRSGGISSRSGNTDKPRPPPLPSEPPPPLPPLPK
Chain of CDK4/Cyclin D1 (P11802 whole entry, species assumed): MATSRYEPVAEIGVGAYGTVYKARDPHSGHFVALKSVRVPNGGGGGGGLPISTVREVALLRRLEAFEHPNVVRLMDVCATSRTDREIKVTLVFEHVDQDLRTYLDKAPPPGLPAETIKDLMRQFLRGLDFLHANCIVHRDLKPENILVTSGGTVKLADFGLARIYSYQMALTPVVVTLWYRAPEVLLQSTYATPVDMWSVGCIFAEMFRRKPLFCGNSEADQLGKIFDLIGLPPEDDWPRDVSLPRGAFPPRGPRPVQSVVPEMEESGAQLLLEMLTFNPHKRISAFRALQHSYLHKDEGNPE
Chain of CDK4/Cyclin D1 (P24385 whole entry partner, species assumed): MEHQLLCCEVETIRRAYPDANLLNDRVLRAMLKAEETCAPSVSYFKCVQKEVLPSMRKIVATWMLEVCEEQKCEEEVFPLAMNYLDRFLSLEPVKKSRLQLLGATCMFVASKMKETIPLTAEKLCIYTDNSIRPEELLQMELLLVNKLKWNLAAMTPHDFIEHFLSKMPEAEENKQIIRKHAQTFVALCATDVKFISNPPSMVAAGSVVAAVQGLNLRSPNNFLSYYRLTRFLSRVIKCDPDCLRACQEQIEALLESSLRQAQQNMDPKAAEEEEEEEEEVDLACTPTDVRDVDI
Chain of CDK7/cyclin H (P50613 whole entry): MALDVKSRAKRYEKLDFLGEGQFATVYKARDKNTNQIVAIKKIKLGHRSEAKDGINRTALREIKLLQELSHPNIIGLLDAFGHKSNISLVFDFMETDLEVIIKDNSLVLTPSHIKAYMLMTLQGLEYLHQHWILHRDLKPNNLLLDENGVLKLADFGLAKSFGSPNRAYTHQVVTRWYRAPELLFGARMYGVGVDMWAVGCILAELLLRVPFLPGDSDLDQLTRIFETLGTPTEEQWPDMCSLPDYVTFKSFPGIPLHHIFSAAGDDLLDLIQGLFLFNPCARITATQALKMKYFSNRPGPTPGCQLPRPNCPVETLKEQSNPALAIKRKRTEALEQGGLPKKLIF
Chain of CDK7/cyclin H (P51946 whole entry partner): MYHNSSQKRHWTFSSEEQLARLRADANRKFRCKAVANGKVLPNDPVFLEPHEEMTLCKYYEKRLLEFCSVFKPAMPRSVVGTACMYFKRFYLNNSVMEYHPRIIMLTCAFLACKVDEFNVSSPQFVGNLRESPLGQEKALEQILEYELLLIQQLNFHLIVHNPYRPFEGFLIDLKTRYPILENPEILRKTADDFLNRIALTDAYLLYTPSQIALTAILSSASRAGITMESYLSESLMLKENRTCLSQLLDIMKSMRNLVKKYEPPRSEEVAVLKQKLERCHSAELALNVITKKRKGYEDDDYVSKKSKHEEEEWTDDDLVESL
Chain of CDK1/Cyclin B (P06493 whole entry, species assumed): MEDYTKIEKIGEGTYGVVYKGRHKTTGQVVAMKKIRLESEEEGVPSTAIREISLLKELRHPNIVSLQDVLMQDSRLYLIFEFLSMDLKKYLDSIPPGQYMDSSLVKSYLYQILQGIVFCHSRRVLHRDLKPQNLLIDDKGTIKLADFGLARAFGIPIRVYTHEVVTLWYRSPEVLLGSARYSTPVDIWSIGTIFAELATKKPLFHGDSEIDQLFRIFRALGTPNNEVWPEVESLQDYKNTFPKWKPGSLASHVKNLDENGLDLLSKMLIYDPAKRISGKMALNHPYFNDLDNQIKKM
Chain of CDK1/Cyclin B (P14635 whole entry partner, species assumed): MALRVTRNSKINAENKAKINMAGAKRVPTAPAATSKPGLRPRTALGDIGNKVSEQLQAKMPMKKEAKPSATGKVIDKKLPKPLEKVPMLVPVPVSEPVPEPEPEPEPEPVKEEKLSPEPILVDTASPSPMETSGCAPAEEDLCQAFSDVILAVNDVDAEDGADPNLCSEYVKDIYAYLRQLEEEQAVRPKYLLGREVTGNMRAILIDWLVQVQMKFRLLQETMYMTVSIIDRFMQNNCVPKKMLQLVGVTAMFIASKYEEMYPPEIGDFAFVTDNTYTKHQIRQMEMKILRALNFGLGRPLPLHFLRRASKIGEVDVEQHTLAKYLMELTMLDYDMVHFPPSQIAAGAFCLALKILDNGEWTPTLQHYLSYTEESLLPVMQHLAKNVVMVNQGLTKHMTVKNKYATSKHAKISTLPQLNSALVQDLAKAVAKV
Experimental for CDK2/Cyclin E: His-tagged CDK2/Cyclin E and CDK1/Cyclin B may be co-expressed and PKCα singularly expressed in Sf 9 insect cells infected with the appropriate baculovirus constructs. The cells are harvested two days after infection by low speed centrifugation and the proteins purified from the insect cell pellets by Metal-chelate chromatography. Briefly, the insect cell pellet is lysed in Buffer A (10 mM Tris-HCl, pH 8.0, 150 mM NaCl, 0.02% NP40 and 5 mM β-marcaptoethanol, 1 mM NaF. 1 mM Na3VO4 and Protease Inhibitors Coctail (Sigma) containing AEBSF, pepstatin A, E 64, bestatin, leupeptin) by sonication. The soluble fraction is cleared by centrifugation and loaded onto Ni-NTA-Agarose (Quiagen). Non bound proteins were washed off with 300 mM NaCl, 5-15 mM Imidazole in Buffer A and the bound proteins eluted with 250 mM Imidazole in Buffer A. The purified proteins are extensively dialyzed against Storage buffer (20 mM HEPES pH 7.4, 50 mM NaCl, 2 mM DTT, 1 mM EDTA, 1 mM EGTA, 0.02% NP40, 10% v/v Glycerol) aliquoted and stored at −70° C.
Experimental for CDK2/cyclin A: Reactions were stopped on ice, followed by filtration through p81 filterplates (Whatman Polyfiltronics, Kent, UK). After washing 3 times with 75 mM orthophosphoric acid, plates were dried, scintillant added and incorporated radioactivity measured in a scintillation counter (TopCount, Packard Instruments, Pangboume, Berks, UK).

For `Cc1nc(C)c(-c2ccnc(Nc3cccc(C(F)(F)F)c3)n2)s1` [Compound 13, [4-(2,4-Dimethyl-thiazol-5-yl)-pyrimidin-2-yl]-(3-trifluoromethyl-phenyl)-amine], the IC50 on CDK4/Cyclin D1 (setting [1]) is above 100 µM; at CDK2/cyclin A (setting [2]), above 100 µM; on CDK1/Cyclin B it was above 100 µM; on CDK7/cyclin H (setting [3]), above 100 µM; on CDK2/Cyclin E (setting [4]), 22 µM; on CDK9/cyclin T1 (setting [5]), 85 µM.
In the case of `Cc1nc(C)c(-c2ccnc(Nc3cccc(N)c3)n2)s1` [Compound 34, N-[4-(2,4-Dimethyl-thiazol-5-yl)-pyrimidin-2-yl]-benzene-1,3-diamine], the 50% inhibitory concentration (IC50) on CDK4/Cyclin D1 (setting [1]) was 1.7 µM; on CDK2/cyclin A (setting [2]), 0.53 µM; at CDK1/Cyclin B it was 1.5 µM; at CDK7/cyclin H (setting [3]), 5.2 µM; on CDK2/Cyclin E (setting [4]) it was 0.53 µM; on CDK9/cyclin T1 (setting [5]), 0.41 µM.
For the compound `CNc1nc(C)c(-c2ccnc(Nc3cccc(C(F)(F)F)c3)n2)s1` [Compound 75, [4-(4-Methyl-2-methylamino-thiazol-5-yl)-pyrimidin-2-yl]-(3-trifluoromethyl-phenyl)-amine], the IC50 is above 100 µM on CDK4/Cyclin D1 (setting [1]); above 100 µM on CDK2/cyclin A (setting [2]); above 100 µM at CDK1/Cyclin B; 19 µM on CDK7/cyclin H (setting [3]); 0.77 µM on CDK2/Cyclin E (setting [4]); 8.3 µM at CDK9/cyclin T1 (setting [5]).
Turning to `COc1cccc(Nc2nccc(-c3sc(N)nc3C)n2)c1` [Compound 108, [4-(2-Amino-4-methyl-thiazol-5-yl)-pyrimidin-2-yl]-(3-methoxy-phenyl)-amine], the IC50 at CDK4/Cyclin D1 (setting [1]) was determined as 1.5 µM; at CDK2/cyclin A (setting [2]), 0.91 µM; on CDK1/Cyclin B it was 2.8 µM; on CDK2/Cyclin E (setting [4]) it was 0.39 µM.
For the compound `Cc1nc(N)sc1-c1ccnc(Nc2cccc(F)c2)n1` [Compound 109, [4-(2-Amino-4-methyl-thiazol-5-yl)-pyrimidin-2-yl]-(3-fluoro-phenyl)-amine], the IC50 was determined as 1.2 µM at CDK4/Cyclin D1 (setting [1]), 1.4 µM on CDK2/cyclin A (setting [2]), 2.9 µM on CDK1/Cyclin B and 0.38 µM on CDK2/Cyclin E (setting [4]).
In the case of `Cc1nc(N)sc1-c1ccnc(Nc2ccc(CCO)cc2)n1` [Compound 118, 2-{4-[4-(2-Amino-4-methyl-thiazol-5-yl)-pyrimidin-2-ylamino]-phenyl}-ethanol], the IC50 on CDK4/Cyclin D1 (setting [1]) was 0.82 µM; on CDK2/cyclin A (setting [2]) it was 0.42 µM; against CDK1/Cyclin B it was 1.8 µM; on CDK7/cyclin H (setting [3]), 2.8 µM; at CDK2/Cyclin E (setting [4]) it was 0.39 µM; at CDK9/cyclin T1 (setting [5]) it was 0.8 µM.
Take `Cc1nc(C)c(-c2ccnc(Nc3ccc(CCO)cc3)n2)s1` [Compound 123, 2-{4-[4-(2,4-Dimethyl-thiazol-5-yl)-pyrimidin-2-ylamino]-phenyl}-ethanol]: the IC50 worked out at 3.3 µM on CDK4/Cyclin D1 (setting [1]), 0.57 µM on CDK2/cyclin A (setting [2]), 1.9 µM on CDK1/Cyclin B and 0.47 µM at CDK2/Cyclin E (setting [4]).
The like results for `CCN(CCO)c1ccc(Nc2nccc(-c3sc(C)nc3C)n2)cc1` [Compound 124, 2-({4-[4-(2,4-Dimethyl-thiazol-5-yl)-pyrimidin-2-ylamino]-phenyl}-ethyl-amino)-ethanol] were, in that order, 6.7 µM, 3.7 µM, 8.6 µM and 3 µM.
With `COc1ccc(Nc2nccc(-c3sc(C)nc3C)n2)cc1O` [Compound 126, 5-[4-(2,4-Dimethyl-thiazol-5-yl)-pyrimidin-2-ylamino]-2-methoxy-phenol], the IC50 on CDK4/Cyclin D1 (setting [1]) was found to be 1.7 µM; at CDK2/cyclin A (setting [2]) it was 0.31 µM; against CDK1/Cyclin B, 1.6 µM; on CDK2/Cyclin E (setting [4]), 0.14 µM; at CDK9/cyclin T1 (setting [5]), 1.3 µM.
Regarding `COc1ccc(Nc2nccc(-c3sc(C)nc3C)n2)cc1N(C)C` [Compound 130, N^1-[4-(2,4-Dimethyl-thiazol-5-yl)-pyrimidin-2-yl]-4-methoxy-N^3,N^3-dimethyl-benzene-1,3-diamine], the IC50 on CDK4/Cyclin D1 (setting [1]) was found to be 4.1 µM; on CDK2/cyclin A (setting [2]) it was 0.67 µM; against CDK1/Cyclin B, 0.47 µM; at CDK7/cyclin H (setting [3]) it was 4.9 µM; at CDK2/Cyclin E (setting [4]), 1.1 µM.
Take `CCNc1nc(C)c(-c2ccnc(Nc3cccc([N+](=O)[O-])c3)n2)s1` [Compound 133, [4-(2-Ethylamino-4-methyl-thiazol-5-yl)-pyrimidin-2-yl]-(3-nitro-phenyl)-amine]: the IC50 on CDK4/Cyclin D1 (setting [1]) is 4.7 µM; at CDK2/cyclin A (setting [2]) it was 4.2 µM; against CDK1/Cyclin B, above 100 µM; at CDK7/cyclin H (setting [3]), 0.39 µM; on CDK2/Cyclin E (setting [4]), 0.088 µM; at CDK9/cyclin T1 (setting [5]) it was 0.21 µM.
For `CCNc1nc(C)c(-c2ccnc(Nc3cccc(OC)c3)n2)s1` [Compound 136, [4-(2-Ethylamino-4-methyl-thiazol-5-yl)-pyrimidin-2-yl]-(3-methoxy-phenyl)-amine], the IC50 on CDK2/cyclin A (setting [2]) was 39 µM; at CDK1/Cyclin B, above 100 µM; on CDK2/Cyclin E (setting [4]), 6.8 µM.
Consider `CCNc1nc(C)c(-c2ccnc(Nc3ccc(C)c([N+](=O)[O-])c3)n2)s1` [Compound 138, [4-(2-Ethylamino-4-methyl-thiazol-5-yl)-pyrimidin-2-yl]-(4-methyl-3-nitro-phenyl)-amine], for which the IC50 was 9.5 µM on CDK2/cyclin A (setting [2]), 41 µM against CDK1/Cyclin B and 2.7 µM at CDK2/Cyclin E (setting [4]).
With `CCCCNc1nc(C)c(-c2ccnc(Nc3ccc(F)cc3)n2)s1` [Compound 139, [4-(2-Butylamino-4-methyl-thiazol-5-yl)-pyrimidin-2-yl]-(4-fluoro-phenyl)-amine], the IC50 on CDK4/Cyclin D1 (setting [1]) came out at 30 µM; at CDK2/cyclin A (setting [2]), 25 µM; against CDK1/Cyclin B it was 47 µM; at CDK2/Cyclin E (setting [4]), 1.7 µM; on CDK9/cyclin T1 (setting [5]), 23 µM.
As to `Cc1nc(C)c(-c2ccnc(Nc3ccc(S(=O)(=O)O)cc3)n2)s1` [Compound 148, 4-[4-(2,4-Dimethyl-thiazol-5-yl)-pyrimidin-2-ylamino]-benzenesulfonic acid], the IC50 amounted to 3.8 µM at CDK4/Cyclin D1 (setting [1]); 0.001 µM on CDK2/cyclin A (setting [2]); 0.048 µM against CDK1/Cyclin B; 11 µM at CDK7/cyclin H (setting [3]); 0.028 µM on CDK2/Cyclin E (setting [4]).
On to `Cc1nc(C)c(-c2ccnc(Nc3ccccc3)n2)s1` [Compound 150, [4-(2,4-Dimethyl-thiazol-5-yl)-pyrimidin-2-yl]-phenyl-amine], for which the IC50 at CDK4/Cyclin D1 (setting [1]) came to 4.9 µM; at CDK2/cyclin A (setting [2]), 0.41 µM; against CDK1/Cyclin B, 1.5 µM; on CDK7/cyclin H (setting [3]), 11 µM; on CDK2/Cyclin E (setting [4]) it was 0.16 µM.
In the case of `Cc1c(-c2ccnc(Nc3ccc(Cl)cc3)n2)sc(=O)n1C` [Compound 156, 5-[2-(4-Chloro-phenylamino)-pyrimidin-4-yl]-3,4-dimethyl-3H-thiazol-2-one], the IC50 was determined as 0.27 µM on CDK2/cyclin A (setting [6]), 1.4 µM at CDK1/Cyclin B and 8.7 µM on CDK7/cyclin H (setting [7]).
For `Cc1c(-c2ccnc(Nc3cccc(O)c3)n2)sc(=O)n1C` [Compound 158, 5-[2-(3-Hydroxy-phenylamino)-pyrimidin-4-yl]-3,4-dimethyl-3H-thiazol-2-one], the IC50 was found to be 1 µM on CDK4/Cyclin D1 (setting [8]); 0.086 µM at CDK2/cyclin A (setting [6]); 0.37 µM against CDK1/Cyclin B; 1.3 µM on CDK7/cyclin H (setting [7]); 0.093 µM at CDK2/Cyclin E (setting [9]).
Consider `Cc1c(-c2ccnc(Nc3ccc(F)c([N+](=O)[O-])c3)n2)sc(=O)n1C` [Compound 159, 5-[2-(4-Fluoro-3-nitro-phenylamino)-pyrimidin-4-yl]-3,4-dimethyl-3H-thiazol-2-one], for which the concentration for half-maximal inhibition (IC50) at CDK2/cyclin A (setting [6]) came out at 0.26 µM; against CDK1/Cyclin B, 0.82 µM; on CDK7/cyclin H (setting [7]), 1.1 µM; on CDK2/Cyclin E (setting [9]) it was 0.078 µM.
Consider `Cc1cc(Nc2nccc(-c3sc(=O)n(C)c3C)n2)ccc1Cl` [Compound 160, 5-[2-(4-Chloro-3-methyl-phenylamino)-pyrimidin-4-yl]-3,4-dimethyl-3H-thiazol-2-one], for which the concentration for half-maximal inhibition (IC50) on CDK4/Cyclin D1 (setting [8]) amounted to 18 µM; on CDK2/cyclin A (setting [6]) it was 1.2 µM; on CDK1/Cyclin B, 1.8 µM; on CDK2/Cyclin E (setting [9]) it was 1.7 µM; at CDK9/cyclin T1 (setting [10]), 0.15 µM.
In the same order, the values of `Cc1ccc(Nc2nccc(-c3sc(=O)n(C)c3C)n2)cc1I` [Compound 161, 5-[2-(3-Iodo-4-methyl-phenylamino)-pyrimidin-4-yl]-3,4-dimethyl-3H-thiazol-2-one] are 4 µM, 0.71 µM, 2.1 µM, 3.2 µM and 0.11 µM.
For `Cc1c(-c2ccnc(Nc3ccc(N(C)C)cc3)n2)sc(=O)n1C` [Compound 164, 5-[2-(4-Dimethylamino-phenylamino)-pyrimidin-4-yl]-3,4-dimethyl-3H-thiazol-2-one], the IC50 is 1 µM at CDK4/Cyclin D1 (setting [8]), 2.2 µM on CDK1/Cyclin B, 1.8 µM on CDK7/cyclin H (setting [7]) and 0.13 µM at CDK9/cyclin T1 (setting [10]).

By IC50 is commonly meant the point on the concentration scale where inhibition reaches its midpoint.

For the origin of these results see patent US20050288307A1, “Anti-viral compounds” (priority 2002, published 2005).
